Values quoted from earlier work, collected in patent US5613958A, “Transdermal delivery systems for the modulated administration of drugs” (PP Holdings Inc., priority 1995, dated 1997).

Conditions: for accumulation in plasma: during continuous ISDN therapy

Row | Compound | antianginal efficacy (dose regimens letting IS-5-MN fall below 100 ng/ml before next dose) | accumulation in plasma | rate of elimination (metabolite of ISDN)
1 | O=[N+]([O-])O[C@@H]1CO[C@H]2[C@@H]1OC[C@@H]2O [IS-5-MN, isosorbide 5-mononitrate] | continuous antianginal efficacy | accumulate in the plasma | slowest rate of elimination
2 | O=[N+]([O-])O[C@H]1CO[C@H]2[C@@H]1OC[C@H]2O [IS-2-MN, isosorbide 2-mononitrate] |  | accumulate in the plasma | 
